According to patent publication US20120132797A1, “MEANS AND METHODS FOR DIAGNOSING THYROID DISORDERS” (BASF SE, priority 2009, published 2012):

Test system: Wistar (Crl:WI(Han)) rats
Experiment: Mass spectrometry-based plasma metabolite profiling of rats treated with known inducers of thyroid function impairment
Assay type: in vivo, rat
Conditions: female rats, ratio of group medians vs controls
Source text: At the beginning of the study the animals were 10-11 weeks old. Each dose group in the studies consisted of five rats per sex, and was compared with controls (10 rats per sex). […] The dose levels were chosen to show the typical overt (high dose) and slight (low dose) toxicological symptoms of the substances as described in the literature or in BASF internal study reports.
Blood samples were withdrawn from the retro-orbital sinus in all rats under isoflurane anesthesia on study days 7, 14 and 28 after a fasting period of 16-20 hours.
For mass spectrometry-based metabolite profiling analysis, plasma samples were extracted by a proprietary method which delivers a polar and a non-polar fraction. For GC-MS analysis, the non-polar fraction was treated with methanol under acidic conditions to yield the fatty acid methyl esters. Both fractions were further derivatised with Omethyl-hydroxyamine hydrochloride and pyridine to convert oxo groups to Omethyloximes and subsequently with a silylating agent before analysis.
In LC-MS/MS analysis, both fractions were reconstituted in appropriate solvent mixtures. HPLC was performed by gradient elution on reversed phase separation columns. For mass spectrometric detection metanomics proprietary technology was applied, which allows target and high sensitivity MRM (Multiple Reaction Monitoring) profiling in parallel to a full screen analysis. […] Moreover, several hundred additional analytes giving a fingerprint of the sample were included in the methods.
Following comprehensive analytical validation steps, the data for each analyte were normalized against data from pool samples. These samples were run in parallel through the whole process to account for process variability.
The sex- and day-stratified heteroscedastic t-test (“Welch test”) was applied to compare treated groups with respective controls. p-Values and ratios of corresponding group medians were collected as metabolic profiles and fed into a database.

## N#Cc1ccc(CC(=NNC(=O)Nc2ccc(OC(F)(F)F)cc2)c2cccc(C(F)(F)F)c2)cc1 (mixture of isomers) [Metaflumizone]
fh7 (study day 7), Table 1
  5-O-Methylsphingosine: 0.99
  Asparagine: 0.75
  Behenic acid (C22:0): 1.12
  Citrate: 0.84
  Docosahexaenoic acid (C22:cis[4,7,10,13,16]6): 1.52
  Glycine: 0.93
  Ketoleucine: 0.97
  Lysophosphatidylcholine (C18:2): 0.88
  Phosphatidylcholine (C16:1, C18:2): 1.14
  Phosphatidylcholine (C18:2, C20:4): 1.14
  Pyruvate: 0.64
  Tricosanoic acid (C23:0): 1.28
  erythro-Sphingosine: 1.25
  threo-Sphingosine: 1.29
fh7 (study day 7), Table 1, first listing
  Sphingomyelin (d18:1, C16:0): 1.29
fh7 (study day 7), Table 1, second listing
  Sphingomyelin (d18:1, C16:0): 0.97
fh14 (study day 14), Table 1
  5-O-Methylsphingosine: 1.42
  Asparagine: 0.57
  Behenic acid (C22:0): 1.28
  Citrate: 0.62
  Docosahexaenoic acid (C22:cis[4,7,10,13,16]6): 2.54
  Glycine: 0.97
  Ketoleucine: 0.81
  Lysophosphatidylcholine (C18:2): 1.20
  Phosphatidylcholine (C16:1, C18:2): 1.40
  Phosphatidylcholine (C18:2, C20:4): 1.16
  Pyruvate: 0.54
  Tricosanoic acid (C23:0): 1.41
  erythro-Sphingosine: 1.50
  threo-Sphingosine: 1.27
fh14 (study day 14), Table 1, first listing
  Sphingomyelin (d18:1, C16:0): 1.45
fh14 (study day 14), Table 1, second listing
  Sphingomyelin (d18:1, C16:0): 1.10
fh28 (study day 28), Table 1
  5-O-Methylsphingosine: 2.07
  Asparagine: 1.17
  Behenic acid (C22:0): 2.03
  Citrate: 0.88
  Docosahexaenoic acid (C22:cis[4,7,10,13,16]6): 1.98
  Glycine: 1.63
  Ketoleucine: 0.81
  Lysophosphatidylcholine (C18:2): 1.11
  Phosphatidylcholine (C16:1, C18:2): 1.86
  Phosphatidylcholine (C18:2, C20:4): 1.20
  Pyruvate: 0.72
  Tricosanoic acid (C23:0): 2.56
  erythro-Sphingosine: 1.82
  threo-Sphingosine: 1.89
fh28 (study day 28), Table 1, first listing
  Sphingomyelin (d18:1, C16:0): 1.38
fh28 (study day 28), Table 1, second listing
  Sphingomyelin (d18:1, C16:0): 1.15

## Cc1ncc[nH]1 [2-Methylimidazole]
fh7 (study day 7), Table 3
  Arachidonic acid (C20:cis[58,11,14]4): 1.04
  Behenic acid (C22:0): 1.34
  Cholesterol: 1.14
  Cysteine: 0.70
  Docosahexaenoic acid (C22:cis[4,7,10,13,16,19]6): 1.37
  Dodecanol: 1.06
  Eicosanoic acid (C20:0): 1.06
  Glycerol phosphate: 1.21
  Heptadecanoic acid (C17:0): 1.14
  Linoleic acid (C18:cis[9,12]2): 1.19
  Nervonic acid C24:(cis[15]1): 1.11
  Palmitic acid (C16:0): 1.21
  Sphingomyelin (d18:1, C16:0): 1.34
  Stearic acid (C18:0): 0.99
  Threonic acid: 1.45
  dihomo-gamma-Linolenic acid (C20:cis[8,11,14]3): 0.83
  erythro-Sphingosine: 1.38
  gamma-Linolenic acid (C18:cis[6,9,12]3): 0.91
  myo-Inositol-2-phosphate: 1.61
  threo-Sphingosine: 1.28
fh14 (study day 14), Table 3
  Arachidonic acid (C20:cis[58,11,14]4): 1.20
  Behenic acid (C22:0): 1.25
  Cholesterol: 1.41
  Cysteine: 0.63
  Docosahexaenoic acid (C22:cis[4,7,10,13,16,19]6): 1.42
  Dodecanol: 1.11
  Eicosanoic acid (C20:0): 1.34
  Glycerol phosphate: 1.26
  Heptadecanoic acid (C17:0): 1.27
  Linoleic acid (C18:cis[9,12]2): 1.27
  Nervonic acid C24:(cis[15]1): 1.52
  Palmitic acid (C16:0): 1.30
  Sphingomyelin (d18:1, C16:0): 1.26
  Stearic acid (C18:0): 1.02
  Threonic acid: 1.26
  dihomo-gamma-Linolenic acid (C20:cis[8,11,14]3): 1.53
  erythro-Sphingosine: 1.61
  gamma-Linolenic acid (C18:cis[6,9,12]3): 1.67
  myo-Inositol-2-phosphate: 1.60
  threo-Sphingosine: 1.63
fh28 (study day 28), Table 3
  Arachidonic acid (C20:cis[58,11,14]4): 1.36
  Behenic acid (C22:0): 1.34
  Cholesterol: 1.55
  Cysteine: 0.76
  Docosahexaenoic acid (C22:cis[4,7,10,13,16,19]6): 1.27
  Dodecanol: 1.05
  Eicosanoic acid (C20:0): 1.15
  Glycerol phosphate: 1.26
  Heptadecanoic acid (C17:0): 1.38
  Linoleic acid (C18:cis[9,12]2): 1.21
  Nervonic acid C24:(cis[15]1): 1.74
  Palmitic acid (C16:0): 1.44
  Sphingomyelin (d18:1, C16:0): 1.27
  Stearic acid (C18:0): 1.17
  Threonic acid: 0.98
  dihomo-gamma-Linolenic acid (C20:cis[8,11,14]3): 1.26
  erythro-Sphingosine: 1.69
  gamma-Linolenic acid (C18:cis[6,9,12]3): 2.30
  myo-Inositol-2-phosphate: 1.70
  threo-Sphingosine: 1.66

## Cc1c[nH]nc1C.O=P(O)(O)O [3,4-Dimethylpyrazolphosphat]
fh7 (study day 7), Table 3
  Arachidonic acid (C20:cis[58,11,14]4): 1.36
  Behenic acid (C22:0): 1.31
  Cholesterol: 1.24
  Cysteine: 0.78
  Docosahexaenoic acid (C22:cis[4,7,10,13,16,19]6): 2.15
  Dodecanol: 1.06
  Eicosanoic acid (C20:0): 1.14
  Glycerol phosphate: 1.29
  Heptadecanoic acid (C17:0): 1.30
  Linoleic acid (C18:cis[9,12]2): 1.29
  Nervonic acid C24:(cis[15]1): 1.60
  Palmitic acid (C16:0): 1.34
  Sphingomyelin (d18:1, C16:0): 1.28
  Stearic acid (C18:0): 1.30
  Threonic acid: 1.51
  dihomo-gamma-Linolenic acid (C20:cis[8,11,14]3): 1.36
  erythro-Sphingosine: 1.40
  gamma-Linolenic acid (C18:cis[6,9,12]3): 1.17
  myo-Inositol-2-phosphate: 1.26
  threo-Sphingosine: 1.27
fh14 (study day 14), Table 3
  Arachidonic acid (C20:cis[58,11,14]4): 1.75
  Behenic acid (C22:0): 1.82
  Cholesterol: 1.73
  Cysteine: 1.29
  Docosahexaenoic acid (C22:cis[4,7,10,13,16,19]6): 2.19
  Dodecanol: 1.17
  Eicosanoic acid (C20:0): 1.61
  Glycerol phosphate: 1.69
  Heptadecanoic acid (C17:0): 1.34
  Linoleic acid (C18:cis[9,12]2): 1.29
  Nervonic acid C24:(cis[15]1): 1.60
  Palmitic acid (C16:0): 1.34
  Sphingomyelin (d18:1, C16:0): 1.35
  Stearic acid (C18:0): 1.71
  Threonic acid: 1.17
  dihomo-gamma-Linolenic acid (C20:cis[8,11,14]3): 1.80
  erythro-Sphingosine: 1.90
  gamma-Linolenic acid (C18:cis[6,9,12]3): 1.87
  myo-Inositol-2-phosphate: 1.78
  threo-Sphingosine: 1.72
fh28 (study day 28), Table 3
  Arachidonic acid (C20:cis[58,11,14]4): 1.67
  Behenic acid (C22:0): 1.43
  Cholesterol: 1.69
  Cysteine: 1.00
  Docosahexaenoic acid (C22:cis[4,7,10,13,16,19]6): 2.25
  Dodecanol: 1.26
  Eicosanoic acid (C20:0): 1.38
  Glycerol phosphate: 1.55
  Heptadecanoic acid (C17:0): 1.39
  Linoleic acid (C18:cis[9,12]2): 1.44
  Nervonic acid C24:(cis[15]1): 1.78
  Palmitic acid (C16:0): 1.55
  Sphingomyelin (d18:1, C16:0): 1.58
  Stearic acid (C18:0): 1.62
  Threonic acid: 1.36
  dihomo-gamma-Linolenic acid (C20:cis[8,11,14]3): 1.86
  erythro-Sphingosine: 1.54
  gamma-Linolenic acid (C18:cis[6,9,12]3): 1.96
  myo-Inositol-2-phosphate: 1.91
  threo-Sphingosine: 1.58
